In patent publication US7361186B2, “Active body cooling with vasodilation to reduce body temperature” (priority 2003, dated 2008):
Several values for one entry are separate records, joined by “and”; a condition that tells them apart may be missing. Equal values may be shown once. Read-outs that look alike come from different tables or passages of the source.

Assays:
[1] = system: healthy subjects; settings: Phase 4
Excerpt: (§1) Mild hypothermia is induced and maintained in healthy subjects for up to several hours. […] Each volunteer is cooled using contact-cooling pads (Arctic Sun Energy Transfer Pads™, Medivance, Inc., Louisville, Colo., U.S.A.). Contact-cooling pads are applied to contact the subjects, and water at a controlled temperature is delivered to and circulated through the contact pads to effect the controlled cooling of each volunteer.

[2] = system: healthy subjects; settings: Phase 6
Excerpt: Mild hypothermia is induced and maintained in healthy subjects for up to several hours. Table 1 summarizes data concerning the subjects for each phase of testing (Phases 1, 3a, 4, 5 and 6). Each volunteer is cooled using contact-cooling pads (Arctic Sun Energy Transfer Pads™, Medivance, Inc., Louisville, Colo., U.S.A.). Contact-cooling pads are applied to contact the subjects, and water at a controlled temperature is delivered to and circulated through the contact pads to effect the controlled cooling of each volunteer.
Five contact-cooling pads are applied to the thighs, back and abdomen of each subjects, and actively cooled. The pads cover and contact about 0.6 square meter of the subject's exterior body surface area, which is the area in heat transfer communication between the pads and the subject's body. Temperatures are measured in the same manner as in Phase 1 except that the rectal temperature probe is connected to a control module and the rectal temperature signal is used by the control module to adjust inlet water temperature via a feedback control algorithm to achieve a target core body temperature of 34.5° C.
A single oral dose of acetaminophen (1000 mg), is administered within 20 minutes prior to treatment. A bolus of IV meperidine (Demerol®, 50-100 mg) is given within 5 minutes of the start of active cooling. Additional doses of meperidine are administered to maintain comfort and to prevent shivering. Active cooling and maintenance of hypothermia continues for five hours. As in the Phase 1, the subjects are actively re-warmed to a tympanic and rectal temperatures of at least of 36° C. prior to termination of the experiment. Shivering, comfort, oxyhemoglobin saturation, and arterial blood pressure are recorded as in Phase 1.
Phase 5 Phase 5 proceeds as described for Phase 3a, except as noted. The temperature of water circulated to the contact-cooling pads is controlled to achieve a target core body temperature of 34.5° C. In addition to meperidine (Demerol®), subjects are also given an IV dose of 8 mg ondansetron (hydrochloride salt, Glaxo Wellcome). […]

[3] = system: healthy subjects; assay: Phase 3a: cooling with five contact-cooling pads under meperidine; type: in vivo, human
Excerpt: as §1

[4] = system: healthy subjects; assay: Phase 5: cooling under meperidine plus IV ondansetron; type: in vivo, human
[5] = system: healthy subjects; assay: Phase 1: cooling of healthy subjects with contact-cooling pads under meperidine; type: in vivo, human
Experimental: Four contact pads are applied to the thighs and chest of each subject and each subject is rapidly cooled with an objective of reducing core body temperature to 34-35° C. Core body temperatures are measured at the tympanic membrane and the rectum. Mean skin-surface temperature is determined from the weighted average of calf, thigh, chest, and upper arm skin temperatures. Thermoregulatory vasoconstriction is evaluated using forearm minus fingertip skin-temperature gradients. Temperatures are measured using Mon-a-Therm™ themocouple probes connected to Mallinckrodt Model 6510 two-channel electronic thermometers having an accuracy near 0.1° C. (Mallinckrodt Anesthesia Products, St. Louis, Mo., U.S.A.). Temperatures are recorded before cooling is started (i.e., baseline) and subsequently at 15-minute intervals.
Each of subjects 1-5 is administered a single dose of acetomiophen (1000 mg) within 20 minutes prior to treatment and is administered a bolus of intravenous (IV) meperidine (Demerol®, 25-75 mg) within 5 minutes of the start of cooling. Subjects also receive initial doses of chlorpromazine (Thorazine®, 12.5-25 mg, IV). Active cooling is initiated and the inlet water temperature is controlled to achieve a target tympanic temperature between 34° C. and 35° C. Additional doses of meperidine and/or chloropromazine are administered to maintain comfort and to prevent shivering. Active cooling and maintenance of hypothermia continues for up to five hours, after which subjects are actively re-warmed to tympanic and rectal temperatures of at least 36° C.
The presence of shivering is noted by physical examination, electromyographic artifact on continuous electrocardiography (ECG), or by subject report. Overall thermal comfort is evaluated at 15-min intervals with a 100-mm-long visual analog scale (VAS) on which 0 mm defines the worst imaginable cold, 50 mm identifies thermal neutrality, and 100 mm indicates unbearable heat. A new, unmarked scale is used for each assessment. Heart rate and oxyhemoglobin saturation are monitored using ECG and pulse oximetry; arterial blood pressure is recorded oscillometrically at 15-minute intervals.

[6] = system: healthy subjects; assay: Subsequent test similar to Phase 5 with supplemental ondansetron dose; type: in vivo, human; settings: one subject; ondansetron 8 mg initial dose and 8 mg supplemental dose 3.5 hours later
Experimental: Moreover, during a subsequent test conducted in a manner similar to that described for Phase 5, a subject is administered an initial dose of 8 mg of the ondansetron followed by a supplemental dose of 8 mg of the ondansetron administered 3.5 hours later.

[7] = meperidine plus buspirone, mean of 4 subjects
[8] = meperidine, ondansetron and magnesium sulfate, mean of 8 subjects
[9] = Phase 3a, meperidine regimen, individual subjects
[10] = Phase 3a, meperidine regimen, mean of 5 subjects
[11] = meperidine regimen, mean of 5 subjects
[12] = Phase 5, meperidine plus ondansetron, mean of 6 subjects

## O=C1CC2(CCCC2)CC(=O)N1CCCCN1CCN(c2ncccn2)CC1 [buspirone]
[1]; [7]
  Cooling rate to 35° C., Mean ± SD: 1.2 ± 0.4 ° C./hr
  Time to 35° C., Mean ± SD: 109 ± 40 min
[1]; oral buspirone 30-60 mg with meperidine, four subjects
  effect on incidence of nausea: did not reduce the incidence of nausea

## O=S(=O)([O-])[O-].[Mg+2] [magnesium sulfate]
[2]; early stages of cooling
  indications of vasodilation (Tdig being larger than Tfore): seven of eight subjects
[2]; [8]
  Cooling rate to 35° C., Mean ± SD: 1.3 ± 0.4 ° C./hr
  Time to 35° C., Mean ± SD: 86 ± 23 min

## CCOC(=O)C1(c2ccccc2)CCN(C)CC1 [meperidine]
[3]; Phase 3a, 180 min timepoint, baseline 122±13, p=0.042
  Systolic blood pressure: 140±20 mm Hg
[3]; Phase 3a, all subjects, during cooling
  change in heart rate, diastolic blood pressure, or blood oxygenation compared with baseline: no statistically significant change
[3]; Phase 3a, five contact-cooling pads, oral acetaminophen 1000 mg, IV meperidine 50-100 mg bolus plus additional doses, tympanic temperature, individual subjects
  Time to 35° C.: 64 min and 180 min and 94 min and 56 min and 46 min
[3]; [9]
  Cooling rate to 35° C.: 1.9 ° C./hr (2×) and .9 ° C./hr and 1.2 ° C./hr and 2.1 ° C./hr
  Nausea or Vomiting During Treatment: Nausea end (2×) and None and Nausea early, end and Nausea, vomiting mid
[3]; [10]
  Cooling rate to 35° C., Mean ± SD: 1.6 ± 0.5 ° C./hr
  Time to 35° C., Mean ± SD: 88 ± 54 min
[3]; Phases 1 and 3a
  respiratory compromise: no respiratory compromise
[3]; Phases 1 and 3a pooled, all cases in Phase 3a
  nausea observed, share of subjects: 30 % of subjects
[3]; Phases 3a, 4 and 5 (no vasodilation drug), early stages of cooling
  indications of vasodilation (Tdig being larger than Tfore): only a few of the subjects
[4]; Phase 5, one subject withdrawn, facial rash
  allergic reaction: mild allergic reaction
[5]; four contact pads, acetaminophen 1000 mg, IV meperidine 25-75 mg bolus plus additional doses, chlorpromazine, tympanic temperature, individual subjects
  Time to 35° C.: 105 min and 78 min and 41 min and 82 min and 81 min
[5]; meperidine regimen, individual subjects
  Nausea or Vomiting During Treatment: None
[5]; [11]
  Cooling rate to 35° C., Mean ± SD: 1.5±0.6 ° C./hr and 1.5 ± .6 ° C./hr
  Time to 35° C., Mean ± SD: 77 ± 23 min
[5]; meperidine regimen, tympanic temperature, individual subjects
  Cooling rate to 35° C.: 1.0 ° C./hr and 1.5 ° C./hr and 2.6 ° C./hr and 1.2 ° C./hr and 1.4 ° C./hr

## Cc1nccn1CC1CCc2c(c3ccccc3n2C)C1=O (stereo not drawn) [ondansetron]
[6]
  nausea: does not experience nausea
[4]; Phase 5, 5 Min after initiation of cooling, gross values, corrected values approximately 15% smaller, individual subjects
  Cumulative Heat Transfer From Subject, 5 Min: 53.91 kcal and 37.16 kcal and 48.61 kcal and 45.90 kcal and 44.85 kcal
[4]; Phase 5, 10 Min after initiation of cooling, gross values, individual subjects
  Cumulative Heat Transfer From Subject, 10 Min: 96.81 kcal and 73.79 kcal and 84.78 kcal and 82.99 kcal and 79.01 kcal
[4]; Phase 5, 15 Min after initiation of cooling, gross values, individual subjects
  Cumulative Heat Transfer From Subject, 15 Min: 136.59 kcal and 109.68 kcal and 124.12 kcal and 118.51 kcal and 111.35 kcal
[4]; Phase 5, 20 Min after initiation of cooling, gross values, individual subjects
  Cumulative Heat Transfer From Subject, 20 Min: 175.59 kcal and 142.73 kcal and 163.01 kcal and 151.96 kcal and 142.43 kcal
[4]; Phase 5, 25 Min after initiation of cooling, gross values, individual subjects
  Cumulative Heat Transfer From Subject, 25 Min: 214.2 kcal and 169.85 kcal and 200.85 kcal and 184.79 kcal and 172.00 kcal
[4]; Phase 5, 30 Min after initiation of cooling, gross values, individual subjects
  Cumulative Heat Transfer From Subject, 30 Min: 252.02 kcal and 184.74 kcal and 239.02 kcal and 218.02 kcal and 201.44 kcal
[4]; Phase 5, 45 Min after initiation of cooling, gross values, individual subjects
  Cumulative Heat Transfer From Subject, 45 Min: 360.32 kcal and 205.19 kcal and 354.67 kcal and 309.30 kcal and 282.20 kcal
[4]; Phase 5, 60 Min after initiation of cooling, gross values, individual subjects
  Cumulative Heat Transfer From Subject, 60 Min: 466.28 kcal and 212.94 kcal and 467.30 kcal and 346.56 kcal and 353.28 kcal
[4]; Phase 5, 75 Min after initiation of cooling, gross values, individual subjects
  Cumulative Heat Transfer From Subject, 75 Min: 567.71 kcal and 284.94 kcal and 574.88 kcal and 361.63 kcal and 423.43 kcal
[4]; Phase 5, 90 Min after initiation of cooling, gross values, individual subjects
  Cumulative Heat Transfer From Subject, 90 Min: 667.78 kcal and 348.14 kcal and 676.99 kcal and 367.39 kcal and 436.35 kcal
[4]; Phase 5, 105 Min after initiation of cooling, gross values, individual subjects
  Cumulative Heat Transfer From Subject, 105 Min: 767.83 kcal and 375.85 kcal and 708.76 kcal and 366.43 kcal and 458.46 kcal
[4]; Phase 5, 120 Min after initiation of cooling, gross values, individual subjects
  Cumulative Heat Transfer From Subject, 120 Min: 867.73 kcal and 407.01 kcal and 733.20 kcal and 368.56 kcal and 457.78 kcal
[4]; Phase 5, IV ondansetron 8 mg with meperidine, relative to Phases 3a and 4
  effect on incidence of nausea and vomiting: reduces the incidence of nausea and vomiting
[4]; Phase 5, as Phase 3a (meperidine) plus IV ondansetron 8 mg, individual subjects
  Time to 35° C.: 58 min and 88 min and 310 min and 189 min and 60 min and 80 min
[4]; Phase 5, meperidine plus IV ondansetron 8 mg, individual subjects
  Cooling rate to 35° C.: 1.4 ° C./hr and 1.6 ° C./hr and 0.5 ° C./hr and 0.6 ° C./hr and 1.9 ° C./hr and 1.5 ° C./hr
[4]; [12]
  Cooling rate to 35° C., Mean ± SD: 1.3 ° C./hr and 1.3 ± 0.6 ° C./hr
  Time to 35° C., Mean ± SD: 131 ± 100 min
[4]; Phase 5, p=0.26, t-test
  meperidine administration relative to Phase 3a: trend toward less meperidine administration
[4]; Phase 5 versus Phases 1, 3a and 4
  mean comfort score: higher
